In patent US6538019B1, “Functional emulsions” (Japan as represented by Director of National Food Research …, priority 2000, dated 2003):

How the values were obtained:
[1] = Dispersion behavior by small-angle X-ray scattering method (SAXS); assay type: physicochemical
Source text: Further, the dispersion behavior of the polyglycerol oleic acid ester (PG) was examined using a small-angle X-ray scattering method (SAXS). It turned out that the polyglycerol oleic acid ester (PG) in ethanol was a molecular assembly having the radius of inertia of about 7 Å and the polyglycerol oleic acid ester (PG) in triolein was a molecular assembly having the radius of inertia of about 90 Å. As a result, it can be said that the stability of emulsions can be achieved by increasing the ratio of triolein with respect to ethanol.

[2] = Stability of the emulsions examined by a turbidity method; assay type: physicochemical; settings: addition amount of PG varied within 1 wt %-5 wt %
Source text: Next, the addition amount of polyglycerol oleic acid ester (PG) was variously changed within the range of 1 wt %-5 wt % and the stability of the emulsions was examined by a turbidity method.

[3] = Stability of the emulsion (time to phase separation of E/O emulsion); assay type: physicochemical; settings: concentration of the emulsifying agent 5%; ratio of triolein and ethanol 8:2
Procedure: First, sunflower seed oil (having the triolein purity 90% or more, as produced by Nippon Lever B. V.) as a continuous phase, 95% ethanol as a dispersed phase, and polyglycerol oleic acid ester (MO750, HLB12.9) as an emulsifying agent (surfactant) were prepared.
Next, polyphenol was dissolved in ethanol. As the polyphenol to be used, catechin, anthocyanin, quercetin can be listed.
Thereafter, the ethanol, to which 1 wt % polyglycerol oleic acid ester (PG) was added, and triolein (sunflower seed oil) were stirred at 3000 rpm for ten minutes with a homogenizer (Polytron: PT3000), thereby attempting the production of an emulsion.
Furthermore, the possibility of using emulsifying agents other than polyglycerol oleic acid ester (PG) was examined. In Table 2, DAO750 indicates decaglycerol decaester, PO500 indicates hexaglycerol pentaester, PO310 indicates tetraglycerol pentaester, MO310 indicates tetraglycerol monoester, MO500 indicates hexaglycerol monoester, and MO750 indicates polyglycerol oleic acid ester.

[4] = cited from earlier work

Radius of inertia of molecular assembly ([1]; in ethanol) | Radius of inertia of molecular assembly ([1]; in triolein) | Substance | Change in emulsion stability [2] | Stability of E/O emulsion by emulsifying agent [3] | Solubility with respect to water [4]
about 7 Å | about 90 Å | polyglycerol oleic acid ester [MO750] | A conspicuous change in emulsion stability was not found | +++ (The sample did not cause the phase separation until five months.) | 
 |  | anthocyanin |  |  | slightly soluble in water
